Reference: patent publication US7560597B2, “2′,4′-dichloro-biphenyl-4-yl-hydroxy-ketones and related compounds and their use as therapeutic agents” (The University Court of the University of Aberdeen, priority 2007, dated 2009)
Entries after “also recorded” stand apart in the source; their conditions may differ. Each block holds one molecule with its values, some of them ahead of it.

Tests used:
[1] = tested on: macrophage cell line J774; experiment: Alamar Blue macrophage J774 viability assay; format: cell-based; details: Mus musculus, J774, 72 h, 72 hours culture with compound
Protocol: Initial screening of candidate compounds was performed using viability assays on cultures of the macrophage cell line J774, which have been used before as a model system for osteoclast survival (see, e.g., Luckman et al., 1998). The assays are based on the survival of the J774 macrophage cell line; macrophages are closely related to osteoclasts, and contain similar high levels of esterase activity.
J774 cells were plated at 10^4 cells per well in 150 μL αMEM (α Modified Eagle Medium) in 96-well plates and grown overnight. The next day, test compounds were added to the cultures, and cultures were continued for another 72 hours. At the end of the culture period, cell survival was determined using an Alamar Blue assay as previously described (see, e.g., Nociari et al., 1998).
Alamar Blue is an oxidation-reduction sensitive indicator. The dye itself is in the oxidised state, which is blue and non-fluorescent. The dye can accept electrons from reducing species, such as NADPH and FADH, to form a reduced dye species, which is red and fluorescent. Thus the transformation from oxidised form to reduced form can be measured by fluorimetric or colourimetric means. For fluorescence measurements, 530-560 nm excitation and 590 nm emission wavelengths are typically used. For colourimetric measurements, absorbance is measured at 570 nm (reduced form) and 600 nm (oxidised form) and a simple calculation performed to determine the relative quantities of the two species.
A high ratio of the reducing species, NADPH and FADH, to the corresponding oxidised species, NADP and FAD, is an indicator that cells are proliferating and viable. A low ratio indicates cells that are quiescent or non-viable.
Briefly, Alamar Blue (Biosource International) was added undiluted to the each well (1:10 v/v, 15 μL). The plate was incubated at 37° C. for 3-4 hours and the fluorescence was measured at 590 nm, with a 25 nm bandwidth. A high reading indicated cells with normal viability, and a low reading indicated cells that have been damaged and are no longer proliferating normally. The controls gave a high fluorescence reading, indicating a high number of live, healthy cells. A potent test compound gave a low fluorescence reading. The average results for each test compound (n=5) were expressed as a percent (%) of the average control value.
Addition of Compounds. All of the compounds studied were made up as 100 mM solutions in DMSO. These stock solutions were then diluted 100 or 1000× in culture medium (αMEM). From these 1 mM or 100 μM solutions, convenient quantities (3-15 μL) were added directly to the wells so as to give the desired final compound concentration.

[2] = In vivo pharmacokinetics: serum levels after oral dosage (HPLC/UV); set-up: species or system rat; details: rats, 10 mg/kg oral
Protocol: Absorption and metabolic stability were studied using an in vivo pharmacokinetics assay. Drug levels assessed using HPLC/UV.
Following overnight starvation, male Wistar rats (250 g) were given a bolus gavage of 500 μL of a solution of test compound in corn oil (5 mg/ml). Blood samples (1 mL, whole blood) were taken at various time intervals and the serum collected following centrifugation. Samples were frozen until required for analysis.
Ethyl acetate (4 mL) was added to the defrosted serum and the samples mixed for 20 minutes. Following centrifugation, the ethyl acetate layer was collected and evaporated under a stream of nitrogen. The residue was reconstituted in mobile phase and 20 μL injected onto the chromatogram.
Standard calibration curves were prepared for each of the test compounds and were linear in the range of 1 ng/mL to 250 ng/mL.
• Column: HIRPB C18 (150×4.6 mm). • Mobile phase: 60% 25 mM ammonium acetate, pH 4; 40% acetonitrile. • Flow rate: 1 mL/minute. • Detection: Peaks detected by UV absorption at λmax in the range of 240-275 nm.
Serum levels of compounds ABD328, ABD345 and ABD430 following oral dosage (10 mg/kg) over the course of 60 minutes were investigated in vivo in rats using an HPLC/UV detection system, as described above.

[3] = tested on: mouse collagen-induced arthritis model; experiment: Collagen-induced arthritis model, joint inflammation scoring; format: in vivo; details: for total joint score (sum of joint inflammation scores of the study group): 21-day period, n=10, untreated group 47, FIG. 3
Protocol: Collagen-induced arthritis (CIA) was induced in 8-week old male DBA/1 mice, by intradermal injection of 100 μL of chicken collagen type II (2 mg/mL) suspended in complete Freund's adjuvant supplemented with 2 mg/mL devitalised M. Tuberculosis into the base of the tail. This will lead to joint inflammation in >80% of the animals within 4 weeks. Treatment with ABD328 (10 mg/kg/day, orally or i.p., delivered in corn oil) was started when joint inflammation became apparent in the first animals (in this experiment 15 days after injection), and the experiment was terminated 3 weeks later. For each animal, the scores for all four joints were added (maximal score=12).
Compound ABD328 (dosage 10 mg/kg, i.p. or oral) was investigated in vivo using the collagen-induced arthritis model, assessed using joint inflammation severity scoring, as described above.

[4] = tested on: mouse-ovariectomy bone loss model; experiment: Ovariectomy induced bone loss (pQCT trabecular bone density); format: in vivo; details: OVX mice, 20 mg/kg orally
Protocol: Animals. Female 9 week-old C57/BL6 mice were used. Animals were housed in a designated animal facility and routinely maintained on a 12 hour:12 hour light:dark cycle and given ad libitum access to food and water.
Ovariectomy induced bone loss. Bilateral ovariectomy (Ovx) was performed under general anaesthesia. Sham ovariectomy (Sham) was similarly performed but with externalisation and replacement of the ovaries. Animals were given a daily injection of (a) test compound (e.g., 10 mg/kg) in vehicle (corn oil), or (b) vehicle (corn oil). After 21 days, the animals were killed, and the tibial bones were dissected and used for bone mineral density measurements and histomorphometric analysis (see below).
Bone Mineral Measurements. Measurements of bone mineral density (BMD) at the left proximal tibial metaphysis were determined by peripheral quantitative computed tomography (pQCT) using an XCT Research M bone densitometer with a voxel size of 70 μm and analysis software version 5.1.4 (Stratec Medizintechnik, Pforzheim, Germany). […]
Statistical Analyses. […] Significant differences between groups were determined by ANOVA followed by post-hoc testing using Dunnet's post-test. […]
Compounds ABD68, ABD328 and ABD355 (dosage 20 mg/kg, orally) were investigated in vivo using ovariectomy induced bone loss assessed using peripheral quantitative computed tomography, as described above.

[5] = Table 3 (variation of W), J774 cells

Structure (SMILES): OCCCCCC(O)c1ccc(-c2ccc(Cl)cc2Cl)cc1 (racemic) [ABD300, (R,S)-1-(2′,4′-Dichloro-biphenyl-4-yl)-hexane-1,6-diol]
IC50 [1, 5]: 8 ± 2 µM

metabolic stability (in words) ([2]; in vivo serum levels): good degree of metabolic stability | oral absorption (blood serum levels), in words ([2]; over 60 minutes, FIG. 2): well absorbed
Structure (SMILES): O=C(CCCCCO)c1ccc(-c2ccc(Cl)cc2Cl)cc1 [ABD328, 1-(2′,4′-Dichloro-biphenyl-4-yl)-6-hydroxy-hexan-1-one]
IC50 ([1]; Table 2, J774 cells): 12 ± 2 µM | IC50 [1, 5]: 11 ± 3 µM | total joint score (sum of joint inflammation scores of the study group) ([3]; 10 mg/kg/day i.p.): 5 | total joint score (sum of joint inflammation scores of the study group) ([3]; 10 mg/kg/day orally): 13 | effect on collagen-induced arthritis / inflammation (in words) ([3]; 10 mg/kg/day, i.p. or oral): fully reverse the effects of collagen-induced arthritis; also recorded: prevents inflammation | effect on ovariectomy-induced bone loss (in words) ([4]; 20 mg/kg): fully reverse the effects of ovariectomy-induced bone loss; also recorded: fully prevents bone loss | increase in trabecular bone density ([4]; relative to the control group (OVX no drug: 34% decrease), FIG. 1): 6%

Structure (SMILES): OCCCCC/C(=N\O)c1ccc(-c2ccc(Cl)cc2Cl)cc1 [ABD468, 1-(2′,4′-Dichloro-biphenyl-4-yl)-6-hydroxy-hexan-1-one oxime]
IC50 [1, 5]: 7 ± 2 µM

Structure (SMILES): OCCCCC[C@@H](O)c1ccc(-c2ccc(Cl)cc2Cl)cc1 [ABD511, (R)-1-(2′,4′-Dichloro-biphenyl-4-yl)-hexane-1,6-diol]
IC50 [1, 5]: 4 ± 2 µM

Structure (SMILES): OCCCCC[C@H](O)c1ccc(-c2ccc(Cl)cc2Cl)cc1 [ABD513, (S)-1-(2′,4′-Dichloro-biphenyl-4-yl)-hexane-1,6-diol]
IC50 [1, 5]: 11 ± 4 µM
